IC50 and EC50 data for 25 molecules are collected here from patent US9169252B2 (BRISTOL-MYERS SQUIBB COMPANY, priority 2014, dated 2015).

One test deals with IRAK4 (Homo sapiens (Human), UniProt Q9NWZ3). The test can be described thus: IRAK4 Inhibition Assay. It counts as biochemical. The note with it: IRAK4 Inhibition Assay; ATP 500 μM; read-out: IRAK4 IC50. How it is done: The assays were performed in U-bottom 384-well plates. […] The reaction was initiated by the combination of IRAK4 with substrates and test compounds. The reaction mixture was incubated at room temperature for 60 min. and terminated by adding 45 μL of 35 mM EDTA to each sample. The reaction mixture was analyzed on the Caliper LABCHIP® 3000 (Caliper, Hopkinton, Mass.) by electrophoretic separation of the fluorescent substrate and phosphorylated product.
IRAK4, sequence (Q9NWZ3 whole entry, species assumed): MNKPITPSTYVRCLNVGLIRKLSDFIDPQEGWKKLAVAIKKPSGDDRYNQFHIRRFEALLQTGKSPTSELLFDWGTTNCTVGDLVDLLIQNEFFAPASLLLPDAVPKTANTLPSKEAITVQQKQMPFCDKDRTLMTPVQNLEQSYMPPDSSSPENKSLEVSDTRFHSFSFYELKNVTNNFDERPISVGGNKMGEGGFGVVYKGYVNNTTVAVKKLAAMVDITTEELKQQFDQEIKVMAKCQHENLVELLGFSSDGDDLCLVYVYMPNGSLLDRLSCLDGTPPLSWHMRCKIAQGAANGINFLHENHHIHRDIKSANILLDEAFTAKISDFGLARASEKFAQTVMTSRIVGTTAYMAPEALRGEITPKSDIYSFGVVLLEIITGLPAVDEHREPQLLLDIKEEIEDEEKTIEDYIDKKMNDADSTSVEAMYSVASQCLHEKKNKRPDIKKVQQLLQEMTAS

In test [1] the test system is TLR2 induced IL-6 in peripheral blood mononuclear cells (PBMCs). The test can be described thus: PBMC TLR2 Induced IL-6 Assay. It counts as cell-based, human. The note with it: Homo sapiens, PBMC, PBMC TLR2 Induced IL-6 Assay, lipoteichoic acid stimulation, IL-6 by ELISA; for EC50: read-out: Cell EC50; for IC50: read-out: Cell IC50. Put shortly: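 Lipoteichoic acid at 10 µg/ml served as TLR2 stimulus for 5 hours, following a 30-minute compound pretreatment at 37° C. Cells were Ficoll-isolated human PBMCs, 250000 cells/well, cultured in RPMI plus 10% heat-inactivated FCS.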
For orientation: ELISA stands for enzyme-linked immunosorbent assay.

Structures are written as SMILES.

`CC(C)Nc1cc(-n2ccc3cc(C#N)cnc32)ncc1C(=O)NCCCOC(C)(C)C` [Example 15, N-(3-(tert-butoxy)propyl)-6-(5-cyano-1H-pyrrolo[2,3-b]pyridin-1-yl)-4-(isopropylamino)nicotinamide]: the IC50 (in general, the point on the concentration scale where inhibition reaches its midpoint) on IRAK4 stood at 0.0055 µM. Also, the EC50 – broadly, the concentration giving half of the maximal effect – in test [1] is 0.171 µM.

Regarding `CC(C)(O)[C@H](F)CNC(=O)c1cnc(-n2ccc3cc(C#N)cnc32)cc1NC12CCC(O)(CC1)C2` [Example 16, (R)-6-(5-cyano-1H-pyrrolo[2,3-b]pyridin-1-yl)-N-(2-fluoro-3-hydroxy-3-methylbutyl)-4-((4-hydroxybicyclo[2.2.1]heptan-1-yl)amino)nicotinamide], the IC50 on IRAK4 came to 0.0012 µM. Besides, the EC50 in test [1] is 0.015 µM.

For the molecule `CC1(Nc2cc(-n3ccc4cc(C#N)cnc43)ncc2C(=O)NC[C@@H](F)C(C)(C)O)CC1` [Example 17, (R)-6-(5-cyano-1H-pyrrolo[2,3-b]pyridin-1-yl)-N-(2-fluoro-3-hydroxy-3-methylbutyl)-4-((1-methylcyclopropyl)amino)nicotinamide], the IC50 on IRAK4 is 0.0012 µM. The EC50 in test [1] was determined as 0.042 µM.

With `CCCNc1cc(-n2ccc3cc(C#N)cnc32)ncc1C(=O)NC[C@@H](F)C(C)(C)O` [Example 18], the IC50 on IRAK4 was found to be 0.0021 µM. In test [1], the EC50 turned out to be 0.062 µM.

`CC(C)CCNc1cc(-n2ccc3cc(C#N)cnc32)ncc1C(=O)NC[C@@H](F)C(C)(C)O` [Example 19, (R)-6-(5-cyano-1H-pyrrolo[2,3-b]pyridin-1-yl)-N-(2-fluoro-3-hydroxy-3-methylbutyl)-4-(isopentylamino) nicotinamide]: at IRAK4, the concentration for half-maximal inhibition (IC50) was 0.0032 µM. In addition, the EC50 in test [1] amounted to 0.252 µM.

Take `CC1(CNc2cc(-n3ccc4cc(C#N)cnc43)ncc2C(=O)NC[C@@H](F)C(C)(C)O)COC1` [Example 20, (R)-6-(5-cyano-1H-pyrrolo[2,3-b]pyridin-1-yl)-N-(2-fluoro-3-hydroxy-3-methylbutyl)-4-(((3-methyloxetan-3-yl)methyl)amino)nicotinamide]: on IRAK4, the IC50 was 0.0057 µM. For the same molecule, the concentration for a half-maximal effect (EC50) in test [1] was 0.497 µM.

Regarding `CC(C)Nc1cc(-n2ccc3cc(C#N)cnc32)ncc1C(=O)NC[C@H](F)C(C)(C)O` [Example 23, (S)-6-(5-cyano-1H-pyrrolo[2,3-b]pyridin-1-yl)-N-(2-fluoro-3-hydroxy-3-methylbutyl)-4-(isopropylamino)nicotinamide], the IC50 at IRAK4 is 0.0026 µM. In addition, in test [1], the EC50 was determined as 0.11 µM.

Turning to `CC(C)(O)[C@H](F)CNC(=O)c1cnc(-n2ccc3cc(C#N)cnc32)cc1NCC1(O)CCC1` [Example 28, (R)-6-(5-cyano-1H-pyrrolo[2,3-b]pyridin-1-yl)-N-(2-fluoro-3-hydroxy-3-methylbutyl)-4-(((1-hydroxycyclobutyl)methyl)amino)nicotinamide], on IRAK4, the IC50 came to 0.0028 µM. Further, the EC50 in test [1] stood at 0.08 µM.

As for `CC(C)(O)[C@H](F)CNC(=O)c1cnc(-n2ccc3cc(C#N)cnc32)cc1NCC1COC1` [Example 29, (R)-6-(5-cyano-1H-pyrrolo[2,3-b]pyridin-1-yl)-N-(2-fluoro-3-hydroxy-3-methylbutyl)-4-((oxetan-3-ylmethyl)amino) nicotinamide], at IRAK4, the IC50 is 0.0037 µM. Besides, the EC50 in test [1] was 0.141 µM.

Consider `CC(C)(O)[C@H](F)CNC(=O)c1cnc(-n2ccc3cc(C#N)cnc32)cc1N[C@@H]1CCC[C@H]1O` [Example 30, 6-(5-cyano-1H-pyrrolo[2,3-b]pyridin-1-yl)-N—((R)-2-fluoro-3-hydroxy-3-methylbutyl)-4-(((1R,2R)-2-hydroxycyclopentyl)amino)nicotinamide], for which, on IRAK4, the IC50 came to 0.0022 µM. Besides, in test [1], the EC50 is 0.101 µM and the IC50 was 0.184 µM.

`CC(C)(O)[C@H](F)CNC(=O)c1cnc(-n2ccc3cc(Cl)cnc32)cc1NC1CCC1` [Example 31, (R)-6-(5-chloro-1H-pyrrolo[2,3-b]pyridin-1-yl)-4-(cyclobutylamino)-N-(2-fluoro-3-hydroxy-3-methylbutyl)nicotinamide]: the figures for the IC50 (on IRAK4; in test [1]) were 0.0034 µM and 1.08 µM, respectively. Besides, in test [1], the concentration for a half-maximal effect (EC50) was determined as 0.367 µM.

For the molecule `CC(C)(O)[C@H](F)CNC(=O)c1cnc(-n2ccc3cc(Cl)cnc32)cc1NC1CCOCC1` [Example 32, (R)-6-(5-chloro-1H-pyrrolo[2,3-b]pyridin-1-yl)-N-(2-fluoro-3-hydroxy-3-methylbutyl)-4-((tetrahydro-2H-pyran-4-yl)amino) nicotinamide], the IC50 on IRAK4 amounted to 0.0019 µM. Besides, in test [1], the EC50 turned out to be 0.075 µM and the IC50 was determined as 0.562 µM.

Turning to `CCNc1cc(-n2ccc3cc(Cl)cnc32)ncc1C(=O)NC[C@@H](F)C(C)(C)O` [Example 33, (R)-6-(5-chloro-1H-pyrrolo[2,3-b]pyridin-1-yl)-4-(ethylamino)-N-(2-fluoro-3-hydroxy-3-methylbutyl)nicotinamide], the IC50 on IRAK4 is 0.0071 µM; in test [1] it was 0.403 µM. For the same molecule, the EC50 in test [1] was found to be 0.661 µM.

For `CC(C)(O)[C@H](F)CNC(=O)c1cnc(-n2ccc3cc(Cl)cnc32)cc1NC1CC1` [Example 34, (R)-6-(5-chloro-1H-pyrrolo[2,3-b]pyridin-1-yl)-4-(cyclopropylamino)-N-(2-fluoro-3-hydroxy-3-methylbutyl)nicotinamide], the IC50 at IRAK4 came to 0.0053 µM. In test [1], the EC50 was found to be 0.18 µM and the 50% inhibitory concentration (IC50) came out at 0.407 µM.

On to `CC(C)(O)CNc1cc(-n2ccc3cc(Cl)cnc32)ncc1C(=O)NC[C@@H](F)C(C)(C)O` [Example 35, (R)-6-(5-chloro-1H-pyrrolo[2,3-b]pyridin-1-yl)-N-(2-fluoro-3-hydroxy-3-methylbutyl)-4-((2-hydroxy-2-methylpropyl)amino)nicotinamide], for which the IC50 on IRAK4 was 0.0021 µM; in test [1], 0.452 µM. In test [1], the EC50 is 0.117 µM.

Regarding `CC(C)(O)CCNC(=O)c1cnc(-n2ccc3cc(Cl)cnc32)cc1NC1CCOCC1` [Example 36, 6-(5-chloro-1H-pyrrolo[2,3-b]pyridin-1-yl)-N-(3-hydroxy-3-methylbutyl)-4-((tetrahydro-2H-pyran-4-yl)amino)nicotinamide], on IRAK4, the IC50 came to 0.0031 µM. In addition, the EC50 in test [1] turned out to be 0.133 µM.

Consider `CC(C)Nc1cc(-n2ccc3cc(Cl)ccc32)ncc1C(=O)NC[C@@H](F)C(C)(C)O` [Example 37, (R)-6-(5-chloro-1H-indol-1-yl)-N-(2-fluoro-3-hydroxy-3-methylbutyl)-4-(isopropylamino)nicotinamide], for which the IC50 at IRAK4 turned out to be 0.0118 µM. For the same molecule, in test [1], the EC50 amounted to 1.23 µM.

Regarding `CC(C)Nc1cc(-n2ccc3cc(F)cnc32)ncc1C(=O)NC[C@@H](F)C(C)(C)O` [Example 38, (R)-6-(5-fluoro-1H-pyrrolo[2,3-b]pyridin-1-yl)-N-(2-fluoro-3-hydroxy-3-methylbutyl)-4-(isopropylamino)nicotinamide], the IC50 on IRAK4 was determined as 0.0016 µM. Moreover, the EC50 in test [1] came to 0.084 µM.

`CC(C)Nc1cc(-n2ccc3cncnc32)ncc1C(=O)NC[C@@H](F)C(C)(C)O` [Example 39, (R)—N-(2-fluoro-3-hydroxy-3-methylbutyl)-4-(isopropylamino)-6-(7H-pyrrolo[2,3-d]pyrimidin-7-yl)nicotinamide]: the IC50 at IRAK4 is 0.0011 µM. Further, in test [1], the EC50 was 0.151 µM and the IC50 is 0.151 µM.

With `CC(C)(O)[C@H](F)CNC(=O)c1cnc(-n2ccc3cncnc32)cc1NC1CCOCC1` [Example 40, (R)—N-(2-fluoro-3-hydroxy-3-methylbutyl)-6-(7H-pyrrolo[2,3-d]pyrimidin-7-yl)-4-((tetrahydro-2H-pyran-4-yl)amino)nicotinamide], the results for the IC50 (at IRAK4; in test [1]) were 0.002 µM and 0.175 µM, respectively. Further, the EC50 in test [1] was found to be 0.175 µM.

`CC(C)(O)[C@H](F)CNC(=O)c1cnc(-n2ccc3cncnc32)cc1NC1CC1` [Example 41, (R)-4-(cyclopropylamino)-N-(2-fluoro-3-hydroxy-3-methylbutyl)-6-(7H-pyrrolo[2,3-d]pyrimidin-7-yl)nicotinamide]: the IC50 was found to be 0.0019 µM on IRAK4 and 0.22 µM in test [1]. The EC50 in test [1] turned out to be 0.22 µM.

For `CC(C)(O)CNc1cc(-n2ccc3cncnc32)ncc1C(=O)NC[C@@H](F)C(C)(C)O` [Example 42, (R)—N-(2-fluoro-3-hydroxy-3-methylbutyl)-4-((2-hydroxy-2-methylpropyl)amino)-6-(7H-pyrrolo[2,3-d]pyrimidin-7-yl)nicotinamide], the half-maximal inhibitory concentration (IC50) on IRAK4 was 0.0136 µM. In addition, in test [1], the 50% effective concentration (EC50) is 0.612 µM and the IC50 amounted to 0.94 µM.

On to `CC(C)(O)CCNC(=O)c1cnc(-n2ccc3cncnc32)cc1NC1CCOCC1` [Example 43, N-(3-hydroxy-3-methylbutyl)-6-(7H-pyrrolo[2,3-d]pyrimidin-7-yl)-4-((tetrahydro-2H-pyran-4-yl)amino)nicotinamide], for which the IC50 at IRAK4 was 0.006 µM. In addition, the EC50 in test [1] amounted to 0.316 µM.

`CC(C)Nc1cc(-n2ccc3cncnc32)ncc1C(=O)NCCC(C)(C)O` [Example 44, N-(3-hydroxy-3-methylbutyl)-4-(isopropylamino)-6-(7H-pyrrolo[2,3-d]pyrimidin-7-yl)nicotinamide]: the IC50 on IRAK4 came out at 0.0042 µM. Besides, the EC50 in test [1] was 0.098 µM.

With `CC(=O)Nc1cnc2c(ccn2-c2cc(NC(C)C)c(C(=O)NC[C@@H](F)C(C)(C)O)cn2)c1` [Example 45, (R)-6-(5-acetamido-1H-pyrrolo[2,3-b]pyridin-1-yl)-N-(2-fluoro-3-hydroxy-3-methylbutyl)-4-(isopropylamino)nicotinamide], at IRAK4, the half-maximal inhibitory concentration (IC50) was 0.0232 µM. Further, the concentration for a half-maximal effect (EC50) in test [1] came out at 0.148 µM.
